Like-named read-outs stand apart in the source and are kept apart here.
How the values were obtained:
CYP3A4 = biological target: T1, CYP3A4 (Homo sapiens, UniProt P08684); experiment: Metabolic stability in CYP3A4 Supersomes; format: in vitro ADME; details: human, recombinant CYP3A4 Supersomes, 1 μM test compound
T1 construct: purchased BD Gentest
Method: (§1) Materials: CYP3A4 Supersomes™ were obtained from BD Gentest. β-nicotinamide adenine dinucleotide phosphate, reduced form (NADPH), magnesium chloride (MgCl2), and dimethyl sulfoxide (DMSO) were purchased from Sigma-Aldrich.
(§2) Determination of Metabolic Stability: 7.5 mM stock solutions of test compounds were prepared in DMSO. The 7.5 mM stock solutions were diluted to 50 μM in acetonitrile (ACN). The 1000 pmol/mL CYP3A4 supersomes were diluted to 50 pmol/mL in 0.1 M potassium phosphate buffer, pH 7.4, containing 3 mM MgCl2. The diluted supersomes were added to wells of a 96-well deep-well polypropylene plate in triplicate. 10 μL of the 50 μM test compound was added to the supersomes and the mixture was pre-warmed for 10 minutes. Reactions were initiated by addition of pre-warmed NADPH solution. The final reaction volume was 0.5 mL and contained 40 pmol/mL CYP3A4 supersomes, 1 μM test compound, and 2 mM NADPH in 0.1 M potassium phosphate buffer, pH 7.4, and 3 mM MgCl2. The reaction mixtures were incubated at 37° C. and 50 μL aliquots were removed at 0, 5, 10, 20, and 30 minutes and added to shallow-well 96-well plates which contained 50 μL of ice-cold ACN with internal standard to stop the reactions. The plates were stored at 4° C. for 20 minutes after which 100 μL of water was added to the wells of the plate before centrifugation to pellet precipitated proteins. Supernatants were transferred to another 96-well plate and analyzed for amounts of parent remaining by LC-MS/MS using an Applied Bio-systems API 4000 mass spectrometer.
(§3) Data analysis: The in vitro t1/2s for test compounds were calculated from the slopes of the linear regression of % parent remaining (ln) vs incubation time relationship. • in vitro t1/2=0.693/k • k=−[slope of linear regression of % parent remaining(ln) vs incubation time]
(§4) Data analysis was performed using Microsoft Excel Software.

CYP3A4 supersomes = biological target: T2, CYP3A4 supersomes (Homo sapiens, UniProt P08684); experiment: Metabolic stability in CYP3A4 Supersomes; format: in vitro ADME; details: for % Difference: [(deuterated species) − (nondeuterated species)](100)/(nondeuterated species), of Ave t1/2 vs bosentan; for increase of in vitro t1/2 over non-deuterated bosentan: CYP3A4 supersomes, under the assay conditions tested, approximate values
T2 construct: purchased BD Gentest
T2 sequence (P08684 whole entry): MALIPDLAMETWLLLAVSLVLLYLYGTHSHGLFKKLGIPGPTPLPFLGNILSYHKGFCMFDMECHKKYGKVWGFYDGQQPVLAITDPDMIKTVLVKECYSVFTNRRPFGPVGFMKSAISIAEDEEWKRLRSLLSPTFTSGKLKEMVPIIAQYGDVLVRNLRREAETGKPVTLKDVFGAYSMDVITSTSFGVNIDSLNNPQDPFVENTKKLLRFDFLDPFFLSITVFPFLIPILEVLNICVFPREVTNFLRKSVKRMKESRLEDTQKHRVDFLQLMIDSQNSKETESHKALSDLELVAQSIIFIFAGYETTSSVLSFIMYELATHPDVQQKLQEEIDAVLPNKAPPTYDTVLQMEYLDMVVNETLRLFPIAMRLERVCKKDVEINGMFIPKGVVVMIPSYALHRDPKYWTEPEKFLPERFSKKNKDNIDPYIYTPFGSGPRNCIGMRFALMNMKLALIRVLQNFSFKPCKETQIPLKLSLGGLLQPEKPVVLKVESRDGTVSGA
Method: as §1, §2, §3, §4

[1] = active metabolite of bosentan; cited from earlier work
[2] = pH 7.4, average of Experiments 1 and 2, CYP3A4 supersomes, read-out: Ave t1/2
[3] = pH 7.4, in vitro half-life, 40 pmol/mL CYP3A4 supersomes, 2 mM NADPH, pH 7.4, 37° C., 0-30 minutes, Experiment 1, read-out: t1/2 (minutes) Experiment 1
[4] = pH 7.4, in vitro half-life, 40 pmol/mL CYP3A4 supersomes, 2 mM NADPH, pH 7.4, 37° C., 0-30 minutes, Experiment 2, read-out: t1/2 (minutes) Experiment 2

T1 sequence (P08684 whole entry): as above

Row | Structure (SMILES) | half-life at 1 μM (CYP3A4; [2]) | half-life at 1 μM (CYP3A4; [3]) | half-life at 1 μM (CYP3A4; [4]) | % Difference (CYP3A4 supersomes) | increase of in vitro t1/2 over non-deuterated bosentan (CYP3A4 supersomes) | share of the overall pharmaceutical properties of bosentan [1]
1 | COc1ccccc1Oc1c(NS(=O)(=O)c2ccc(C(C)(C)C)cc2)nc(-c2ncccn2)nc1OCCO [Bosentan, N[6-(2-hydroxyethoxy)-5-(2-methoxyphenoxy)-2-pyrimidin-2-yl-pyrimidin-4-yl]-4-tert-butyl-benzenesulfonamide, reference compound] | 35.8 min | 34.3 min | 37.2 min | – | – | –
2 | [2H]C([2H])(O)COc1nc(-c2ncccn2)nc(NS(=O)(=O)c2ccc(C(C([2H])([2H])[2H])(C([2H])([2H])[2H])C([2H])([2H])[2H])cc2)c1Oc1ccccc1OC([2H])([2H])[2H] [Compound 106, 4-(tert-Butyl-d9)-N-(6-(2-hydroxy-2,2-d2-ethoxy)-5-(2-(methoxy-d3)phenoxy)-2,2′-bipyrimidin-4-yl)benzenesulfonamide] | 55.2 min | 53.3 min | 57.2 min | 54.2% | ~54% | –
3 | COc1ccccc1Oc1c(NS(=O)(=O)c2ccc(C(C)(C)CO)cc2)nc(-c2ncccn2)nc1OCCO [hydroxybosentan] | – | – | – | – | – | up to 20%

More lines, main results first:

Row | half-life at 1 μM (CYP3A4; [2]) | half-life at 1 μM (CYP3A4; [3]) | half-life at 1 μM (CYP3A4; [4]) | % Difference (CYP3A4 supersomes) | increase of in vitro t1/2 over non-deuterated bosentan (CYP3A4 supersomes) | Structure (SMILES) | share of the overall pharmaceutical properties of bosentan [1]
4 | 31.6 min | 30.9 min | 32.4 min | −11.7% | – | [2H]C([2H])(O)COc1nc(-c2ncccn2)nc(NS(=O)(=O)c2ccc(C(C)(C)C)cc2)c1Oc1ccccc1OC [Compound 104, 4-tert-Butyl-N-(6-(2-hydroxy-2,2-d2-ethoxy)-5-(2-methoxyphenoxy)-2,2′-bipyrimidin-4-yl)benzenesulfonamide] | –
5 | 38.2 min | 35.9 min | 40.5 min | 6.7% | – | [2H]C([2H])([2H])C(c1ccc(S(=O)(=O)Nc2nc(-c3ncccn3)nc(OCCO)c2Oc2ccccc2OC)cc1)(C([2H])([2H])[2H])C([2H])([2H])[2H] [Compound 103, 4-(tert-Butyl-d9)-N-(6-(-2-hydroxyethoxy)-5-(2-methoxyphenoxy)-2,2′-bipyrimidin-4-yl)benzenesulfonamide] | –
6 | 46.2 min | 45.7 min | 46.8 min | 29.1% | ~29% | [2H]C([2H])([2H])Oc1ccccc1Oc1c(NS(=O)(=O)c2ccc(C(C)(C)C)cc2)nc(-c2ncccn2)nc1OCCO [Compound 102, 4-tert-Butyl-N-(6-(2-hydroxyethoxy)-5-(2-(methoxy-d3)-phenoxy)-2,2′-bipyrimidin-4-yl)benzenesulfonamide] | –
7 | 41.2 min | 41 min | 41.3 min | 15.1% | ~15% | [2H]C([2H])([2H])Oc1ccccc1Oc1c(NS(=O)(=O)c2ccc(C(C([2H])([2H])[2H])(C([2H])([2H])[2H])C([2H])([2H])[2H])cc2)nc(-c2ncccn2)nc1OCCO [Compound 101, 4-(tert-Butyl-d9)-N-(6-(2-hydroxyethoxy)-5-(2-(methoxy-d3)-phenoxy)-2,2′-bipyrimidin-4-yl)benzenesulfonamide] | –

From patent US8080549B2, “Endothelin receptor antagonists” (CoNCERT Pharmaceuticals, Inc., priority 2007, dated 2011)
